Source: publication PMC9090415, “Discovery of small molecule inhibitors of Plasmodium falciparum apicoplast DNA polymerase” (Journal of Enzyme Inhibition and Medicinal Chemistry, 2022)

Biological target: P. falciparum apicoplast DNA polymerase (Pf-apPOL) (Plasmodium falciparum, UniProt Q8ILY1)
Experiment: Fluorescence-based high-throughput DNA polymerase assay (molecular beacon), primary screen and dose-response;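 on % inhibition ApPOL 90': test concentration in µM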;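 on % inhibition apPOL 180': test concentration in µM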
Assay type: biochemical
Outline: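 Single-point screening used 10 µM compound with 20 nM polymerase, 20 nM hairpin substrate and 6 µM dNTPs for 90 min at 25 °C. Confirmatory titrations (2.5–80 µM) followed fluorescence at three times, and IC50 was derived from a fit including a cooperativity term n.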

[1] = primary screen value by plate and well; 90 min, 10 µM
[2] = primary screen value of the 186 hits; unit not given; 90 min, 10 µM

Sequence of P. falciparum apicoplast DNA polymerase (Pf-apPOL) (Q8ILY1 entry or part of it): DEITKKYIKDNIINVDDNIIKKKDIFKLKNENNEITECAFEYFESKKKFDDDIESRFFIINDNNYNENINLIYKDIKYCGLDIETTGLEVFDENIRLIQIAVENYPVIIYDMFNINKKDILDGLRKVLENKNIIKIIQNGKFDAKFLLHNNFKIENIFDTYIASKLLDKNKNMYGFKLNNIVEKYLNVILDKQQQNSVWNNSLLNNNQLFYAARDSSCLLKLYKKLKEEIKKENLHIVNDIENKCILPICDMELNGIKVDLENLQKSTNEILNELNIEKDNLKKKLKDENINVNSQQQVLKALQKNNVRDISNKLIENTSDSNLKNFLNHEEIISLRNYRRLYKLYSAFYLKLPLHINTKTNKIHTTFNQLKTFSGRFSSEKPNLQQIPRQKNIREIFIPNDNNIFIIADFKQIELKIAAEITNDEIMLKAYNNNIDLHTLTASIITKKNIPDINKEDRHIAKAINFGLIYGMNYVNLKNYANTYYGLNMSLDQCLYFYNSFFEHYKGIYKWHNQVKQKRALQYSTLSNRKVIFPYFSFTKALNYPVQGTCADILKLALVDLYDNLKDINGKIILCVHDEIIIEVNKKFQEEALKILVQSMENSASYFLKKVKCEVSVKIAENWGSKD

SMILES: O=C1NCCCn2cc(S(=O)(=O)Nc3ccccc3)cc21 [KU0214835]
- % inhibition Apo pol 10' (DRC-1; 10'; concentration 2.5): 3.062%
- % inhibition Apo pol 10' (DRC-1; 10'; concentration 5): 6.352%
- % inhibition Apo pol 10' (DRC-1; 10'; concentration 10): 23.7327%
- % inhibition Apo pol 10' (DRC-1; 10'; concentration 20): 40.9778%
- % inhibition Apo pol 10' (DRC-1; 10'; concentration 40): 76.8886%
- % inhibition Apo pol 10' (DRC-1; 10'; concentration 80): 90.7287%
- % inhibition Apol 90' (DRC-1; 90'; concentration 2.5): -1.959%
- % inhibition Apol 90' (DRC-1; 90'; concentration 5): -0.5686%
- % inhibition Apol 90' (DRC-1; 90'; concentration 10): 11.8703%
- % inhibition Apol 90' (DRC-1; 90'; concentration 20): 23.2222%
- % inhibition Apol 90' (DRC-1; 90'; concentration 40): 60.7318%
- % inhibition Apol 90' (DRC-1; 90'; concentration 80): 88.5247%
- % inhibition apPOL 180' (DRC-1; 180'; concentration 2.5): -6.967%
- % inhibition apPOL 180' (DRC-1; 180'; concentration 5): -5.597%
- % inhibition apPOL 180' (DRC-1; 180'; concentration 10): 2.257%
- % inhibition apPOL 180' (DRC-1; 180'; concentration 20): 8.277%
- % inhibition apPOL 180' (DRC-1; 180'; concentration 40): 41.6614%
- % inhibition apPOL 180' (DRC-1; 180'; concentration 80): 83.4683%
- % inhibition Apo pol 5' (DRC-2; 5'; concentration 2.5): 5.45%
- % inhibition Apo pol 5' (DRC-2; 5'; concentration 5): 8%
- % inhibition Apo pol 5' (DRC-2; 5'; concentration 10): 25%
- % inhibition Apo pol 5' (DRC-2; 5'; concentration 20): 44%
- % inhibition Apo pol 5' (DRC-2; 5'; concentration 40): 53%
- % inhibition Apo pol 5' (DRC-2; 5'; concentration 80): 50%
- % inhibition Apol 40' (DRC-2; 40'; concentration 2.5): 7%
- % inhibition Apol 40' (DRC-2; 40'; concentration 5): 8%
- % inhibition Apol 40' (DRC-2; 40'; concentration 10): 24%
- % inhibition Apol 40' (DRC-2; 40'; concentration 20): 48%
- % inhibition Apol 40' (DRC-2; 40'; concentration 40): 66%
- % inhibition Apol 40' (DRC-2; 40'; concentration 80): 70%
- % inhibition ApPOL 90' (DRC-2; 90'; concentration 2.5): 5.66%
- % inhibition ApPOL 90' (DRC-2; 90'; concentration 5): 7%
- % inhibition ApPOL 90' (DRC-2; 90'; concentration 10): 21%
- % inhibition ApPOL 90' (DRC-2; 90'; concentration 20): 44%
- % inhibition ApPOL 90' (DRC-2; 90'; concentration 40): 66%
- % inhibition ApPOL 90' (DRC-2; 90'; concentration 80): 74%
- % inhibition apPOL 180' (DRC-2; 180'; concentration 2.5): 2%
- % inhibition apPOL 180' (DRC-2; 180'; concentration 5): 3.52%
- % inhibition apPOL 180' (DRC-2; 180'; concentration 10): 14%
- % inhibition apPOL 180' (DRC-2; 180'; concentration 20): 31%
- % inhibition apPOL 180' (DRC-2; 180'; concentration 40): 59%
- % inhibition apPOL 180' (DRC-2; 180'; concentration 80): 76%
- % inhibition Apol 40' (conc. 2.5; 40'; DRC-2): 7%
- % inhibition Apo pol 5' (conc. 5; 5'; DRC-2): 8%
- % inhibition Apol 40' (conc. 5; 40'; DRC-2): 8%
- % inhibition ApPOL 90' (conc. 5; 90'; DRC-2): 7%
- % inhibition Apo pol 5' (conc. 20; 5'; DRC-2): 44%
- % inhibition ApPOL 90' (conc. 20; 90'; DRC-2): 44%
- % inhibition Apol 40' (conc. 40; 40'; DRC-2): 66%
- % inhibition ApPOL 90' (conc. 40; 90'; DRC-2): 66%
- DNA Pol [1]: 21
- DNA Pol [2]: 21

SMILES: COc1ccc(-c2occ(C(=O)O)c2C(=O)O)cc1 [KU0021536]
- % inhibition Apo pol 10' (DRC-1; concentration 2.5; 10'): 12.66%
- % inhibition Apol 90' (DRC-1; concentration 2.5; 90'): 6.208%
- % inhibition apPOL 180' (DRC-1; concentration 2.5; 180'): 0.2787%
- % inhibition Apo pol 10' (DRC-1; concentration 5; 10'): 21.9361%
- % inhibition Apol 90' (DRC-1; concentration 5; 90'): 18.5169%
- % inhibition apPOL 180' (DRC-1; concentration 5; 180'): 12.9539%
- % inhibition Apo pol 10' (DRC-1; concentration 10; 10'): 43.1098%
- % inhibition Apol 90' (DRC-1; concentration 10; 90'): 39.5848%
- % inhibition apPOL 180' (DRC-1; concentration 10; 180'): 35.5357%
- % inhibition Apo pol 10' (DRC-1; concentration 20; 10'): 66.1228%
- % inhibition Apol 90' (DRC-1; concentration 20; 90'): 63.2397%
- % inhibition apPOL 180' (DRC-1; concentration 20; 180'): 62.8921%
- % inhibition Apo pol 10' (DRC-1; concentration 40; 10'): 86.5866%
- % inhibition Apol 90' (DRC-1; concentration 40; 90'): 84.6266%
- % inhibition apPOL 180' (DRC-1; concentration 40; 180'): 85.4203%
- % inhibition Apo pol 10' (DRC-1; concentration 80 (unit not given); 10'): 93.5468%
- % inhibition Apol 90' (DRC-1; concentration 80; 90'): 92.3135%
- % inhibition apPOL 180' (DRC-1; concentration 80; 180'): 92.8082%
- % inhibition Apo pol 5' (DRC-2; 5'; concentration 40): 50%
- % inhibition Apol 40' (DRC-2; 40'; concentration 10): 48%
- % inhibition ApPOL 90' (DRC-2; 90'; concentration 10): 50%
- % inhibition ApPOL 90' (DRC-2; 90'; concentration 80): 77%
- % inhibition apPOL 180' (DRC-2; 180'; concentration 10): 48%
- % inhibition apPOL 180' (DRC-2; 180'; concentration 40): 77%
- % inhibition Apo pol 5' (DRC-2; concentration 2.5; 5'): 7%
- % inhibition Apol 40' (DRC-2; concentration 2.5; 40'): 17%
- % inhibition ApPOL 90' (DRC-2; concentration 2.5; 90'): 16%
- % inhibition apPOL 180' (DRC-2; concentration 2.5; 180'): 10%
- % inhibition Apo pol 5' (DRC-2; concentration 5; 5'): 21%
- % inhibition Apol 40' (DRC-2; concentration 5; 40'): 30%
- % inhibition ApPOL 90' (DRC-2; concentration 5; 90'): 32%
- % inhibition apPOL 180' (DRC-2; concentration 5; 180'): 27%
- % inhibition Apo pol 5' (DRC-2; concentration 10; 5'): 34%
- % inhibition Apol 40' (DRC-2; concentration 10; 40'): 48%
- % inhibition ApPOL 90' (DRC-2; concentration 10; 90'): 50%
- % inhibition apPOL 180' (DRC-2; concentration 10; 180'): 48%
- % inhibition Apo pol 5' (DRC-2; concentration 20; 5'): 43%
- % inhibition Apol 40' (DRC-2; concentration 20; 40'): 62%
- % inhibition ApPOL 90' (DRC-2; concentration 20; 90'): 66%
- % inhibition apPOL 180' (DRC-2; concentration 20; 180'): 67%
- % inhibition Apo pol 5' (DRC-2; concentration 40; 5'): 50%
- % inhibition Apol 40' (DRC-2; concentration 40; 40'): 70%
- % inhibition ApPOL 90' (DRC-2; concentration 40; 90'): 75%
- % inhibition apPOL 180' (DRC-2; concentration 40; 180'): 77%
- % inhibition Apo pol 5' (DRC-2; concentration 80; 5'): 51%
- % inhibition Apol 40' (DRC-2; concentration 80; 40'): 74%
- % inhibition ApPOL 90' (DRC-2; concentration 80; 90'): 77%
- % inhibition apPOL 180' (DRC-2; concentration 80; 180'): 80%
- DNA Pol [2]: 29
- DNA Pol (primary screen value; head prints only 'DNA Pol'; 90 min, 10 µM): 29

SMILES: CC(NC(=O)Cc1cc(=O)[nH]c(SCc2cccc(Cl)c2)n1)c1ccccc1 (stereo not drawn) [Molecule 67]
- IC50 (supplemental file 2, sheet IC50 nontoxic compounds; Pf-apPOL): 23.3 µM

SMILES: O=C(NCC1CCN(C2CCCC2)CC1)C(=O)NC1CCCC1 [KU0199596]
- % inhibition Apo pol 10' (DRC-1; 10'; concentration 2.5): 0.01298%
- % inhibition Apo pol 10' (DRC-1; 10'; concentration 5): -3.723%
- % inhibition Apo pol 10' (DRC-1; 10'; concentration 10): 11.8369%
- % inhibition Apo pol 10' (DRC-1; 10'; concentration 20): 30.2117%
- % inhibition Apo pol 10' (DRC-1; 10'; concentration 40): 52.3157%
- % inhibition Apo pol 10' (DRC-1; 10'; concentration 80): 62.5585%
- % inhibition Apol 90' (DRC-1; 90'; concentration 2.5): 3.739%
- % inhibition Apol 90' (DRC-1; 90'; concentration 5): 4.197%
- % inhibition Apol 90' (DRC-1; 90'; concentration 10): 23.1731%
- % inhibition Apol 90' (DRC-1; 90'; concentration 20): 45.2225%
- % inhibition Apol 90' (DRC-1; 90'; concentration 40): 64.9359%
- % inhibition Apol 90' (DRC-1; 90'; concentration 80): 71.081%
- % inhibition apPOL 180' (DRC-1; 180'; concentration 2.5): 10.6167%
- % inhibition apPOL 180' (DRC-1; 180'; concentration 5): 16.0151%
- % inhibition apPOL 180' (DRC-1; 180'; concentration 10): 39.3373%
- % inhibition apPOL 180' (DRC-1; 180'; concentration 20): 63.8149%
- % inhibition apPOL 180' (DRC-1; 180'; concentration 40): 81.7381%
- % inhibition apPOL 180' (DRC-1; 180'; concentration 80): 87.3658%
- % inhibition Apo pol 5' (DRC-2; 5'; concentration 2.5): 6%
- % inhibition Apo pol 5' (DRC-2; 5'; concentration 5): 9%
- % inhibition Apo pol 5' (DRC-2; 5'; concentration 10): 24%
- % inhibition Apo pol 5' (DRC-2; 5'; concentration 20): 35%
- % inhibition Apo pol 5' (DRC-2; 5'; concentration 40): 45%
- % inhibition Apo pol 5' (DRC-2; 5'; concentration 80): 45%
- % inhibition Apol 40' (DRC-2; 40'; concentration 2.5): 2.8%
- % inhibition Apol 40' (DRC-2; 40'; concentration 5): -3%
- % inhibition Apol 40' (DRC-2; 40'; concentration 10): 21%
- % inhibition Apol 40' (DRC-2; 40'; concentration 20): 34%
- % inhibition Apol 40' (DRC-2; 40'; concentration 40): 44%
- % inhibition Apol 40' (DRC-2; 40'; concentration 80): 41%
- % inhibition ApPOL 90' (DRC-2; 90'; concentration 2.5): 2.29%
- % inhibition ApPOL 90' (DRC-2; 90'; concentration 5): -11%
- % inhibition ApPOL 90' (DRC-2; 90'; concentration 10): 19%
- % inhibition ApPOL 90' (DRC-2; 90'; concentration 20): 30%
- % inhibition ApPOL 90' (DRC-2; 90'; concentration 40): 40%
- % inhibition ApPOL 90' (DRC-2; 90'; concentration 80): 39%
- % inhibition apPOL 180' (DRC-2; 180'; concentration 2.5): -0.788%
- % inhibition apPOL 180' (DRC-2; 180'; concentration 5): -84%
- % inhibition apPOL 180' (DRC-2; 180'; concentration 10): 8%
- % inhibition apPOL 180' (DRC-2; 180'; concentration 20): 16%
- % inhibition apPOL 180' (DRC-2; 180'; concentration 40): 30%
- % inhibition apPOL 180' (DRC-2; 180'; concentration 80): 34%
- % inhibition Apol 40' (conc. 20; 40'; DRC-2): 34%
- % inhibition ApPOL 90' (conc. 20; 90'; DRC-2): 30%
- % inhibition Apo pol 5' (conc. 40; 5'; DRC-2): 45%
- % inhibition apPOL 180' (conc. 40; 180'; DRC-2): 30%
- % inhibition Apo pol 5' (conc. 80; 5'; DRC-2): 45%
- % inhibition apPOL 180' (conc. 80; 180'; DRC-2): 34%
- DNA Pol [1]: 24
- DNA Pol [2]: 24
